# Patent publication US10946012B2, “Methods for inducing tumor regression, inhibiting tumor growth, and inducing apoptosis in breast tumors with geranylgeranyltransferase I inhibitors” (H. Lee Moffitt Cancer Center and Research Institute, Inc., priority 2009, dated 2021)
# Tests used:
# Cdk2 = details: previous report (Adnane et al. 1998); cited from earlier work
# FTase = target: T1, FTase (Homo sapiens, UniProt P49354+P49356); experiment: In vitro FTase activity assay ([3H]FPP transfer to H-Ras-CVLS); assay type: biochemical; details: read-out: IC50, inhibition of FTase activity
# T1 construct: GGTase I and FTase activities from 60,000×g supernatants of human Burkitt's lymphoma (Daudi) cells; host or cells: Daudi (human Burkitt's lymphoma) cells, 60,000xg supernatant
# Method: (§1) A brief discussion of exemplary materials and methods follows. In vitro FTase and GGTase I activity assays were performed. GGTase I and FTase activities from 60,000×g supernatants of human Burkitt's lymphoma (Daudi) cells (American Type Culture Collection (ATCC), Rockville, Md.) were assayed as described previously.
# GGTase I = target: T2, GGTase I (Homo sapiens, UniProt P49354+P53609); experiment: In vitro GGTase I activity assay ([3H]GGPP transfer to H-Ras-CVLL); assay type: biochemical
# T2 construct: GGTase I and FTase activities from 60,000×g supernatants of human Burkitt's lymphoma (Daudi) cells; host or cells: Daudi (human Burkitt's lymphoma) cells, 60,000xg supernatant
# Method: as §1
# [1] = system: MDA-MB-231 breast cancer tumors; experiment: Anti-tumor activity in the nude mouse tumor xenograft model; assay type: in vivo, nude mice; details: for average tumor size: vehicle 860±87
# Method: Nude mice (nu/nu, Charles River, Wilmington, Mass.) were maintained in accordance with the Institutional Animal Care and Use Committee (IACUC) procedures and guidelines. MDA-MB-231 cells were harvested via trypsinization, pelleted at 805×g for 5 min, and re-suspended in a 50:50 mixture of sterile PBS and Matrigel (BD Biosciences) at 10×10^6 cells per 100 μl. A volume of 100 μl (˜10×10^6 cells) was injected orthotopically into the upper mammary fat pads of nude mice. The tumor xenografts were monitored by electronic caliper measurements and tumor volume (V) was calculated using the formula V=W^2L/2, where width (W) is […]. When the tumors reached ˜100 mm^3, the animals were randomized and injected intraperiteoneally daily with vehicle (70% DMSO), or 100 mg/kg GGTI-2417 or GGTI-2418, or every third day with GGTI-2418 (200 mg/kg. Tumors were measured every third day for 12-18 days.
# p27, Rap1, phospho-Akt = experiment: Western blot of tumor biopsies from ErbB2 transgenic mice; assay type: in vivo, mouse
# From the text: (§2) A breeding pair of homozygous FVB/N-Tg (MMTVneu) 202Mul/J mice (JAX #002376, Bar Harbor, Me.) was used to generate a transgenic colony in accordance to IACUC protocols and procedures. Phenotypically, these mice overexpress the receptor tyrosine kinase ErbB2 driven by the MMTV promoter, which results in tumor formation at ˜200 days of age. Once tumors reached sizes above 800 mm^3, osmotic mini-pumps (Alzet, Cupertino, Calif.) were loaded with either vehicle (80% PEG300; 20% DMSO) or GGTI-2418 (100 mg/kg daily) and implanted subcutaneously under the dorsal surface of the mouse, between the shoulder blades. Vehicle or GGTI-2418 was constantly delivered for 14 days, during which tumor volumes were measured and calculated as described above. Tumor biopsies were snap frozen in liquid N2 and stored at −80° C. until further processed. Weighted tumor samples were mixed with the appropriate amount of T-PER® Tissue Protein Extraction Reagent (Pierce, Rockford, Ill.) containing protease inhibitor cocktail, 2 mM PMSF, 2 mM Na3VO4, and 6.4 mg/ml p-nitrophenylphosphate and homogenized with the PCR Tissue Homogenizing Kit (Fisher Scientific). The homogenate was centrifuged at 13,000×g for 30 min at 4° C. and the supernatant was subjected to Western blotting with the indicated antibodies.
# [2] = system: ErbB2-driven mammary tumors; experiment: Anti-tumor activity in the ErbB2 transgenic mouse model; assay type: in vivo
# From the text: as §2
# [3] = system: MDA-MB-468 breast cancer cells; experiment: Trypan Blue exclusion assay (proliferation, cell death) in MDA-MB-468 cells; assay type: cell-based, human; details: 5 nM p27 siRNA; 50 μM GGTI-2417 or 1 μM taxol
# Method: Human MDA-MB-468 and MDA-MB-231 breast cancer cells and murine NIH 3T3 cells were obtained from the ATCC and cultured in DMEM medium. Human SK-Br3 and BT-474 breast cancer cells (ATCC) were cultured in McCoy's 5a medium and Hybri-Care medium, respectively. Mouse embryonic fibroblast (MEF) cells from p27 wild-type and p27 null mice were grown in DMEM. All media were supplemented with 10% fetal calf serum, 10 units/ml penicillin, and 10 μg/ml streptomycin. Subconfluent cells were treated with different concentrations of GGTI, FTI or DMSO vehicle for specific time periods. After treatment, cells were harvested by trypsinization.
# Pre-designed siRNA to p27 (Cat #118714) and the negative control (Cat #4611) were purchased from Ambion (Austin, Tex.). Twenty-four hours before transfection, MDA-MB-468 cells were plated onto twelve-well plates in fresh DMEM medium containing 10% FBS and no antibiotics. Transient transfection of siRNA was carried out using Oligofectamine reagent (Invitrogen, Carlsbad, Calif.), following the manufacturer's instructions. In brief, 5 nM of p27 siRNA or control siRNA were mixed with Opti-MEM medium (Invitrogen) in such a way so that the total volume went to 90 μl, and then complexed with a mixture of 2 μl of Oligofectamine and 8 μl Opti-MEM; the total volume of RNA:Oligofectamine complex was 100 μl. The RNA:Oligofectamine complex was then incubated for 20 min at room temperature before adding to the cells. Before transfection, the old medium was discarded, cells were washed once with fresh Opti-MEM and 400 μl of fresh Opti-MEM placed into each well before adding the RNA:Oligofectamine complex to each well. The final diluted volume on each well was 500 μl. After 8 h, 500 μl DMEM containing 30% FBS was added to each well and cells were further incubated for 40 h.
# Adherent cells were harvested by trypsinization and diluted with 0.4% Trypan Blue dye and counted on a hemacytometer. Cells excluding the dye were scored as live cells, whereas cells absorbing the dye were scored as dead cells. Cell proliferation was determined by dividing the number of live cells in the treated sample by the number of live cells in the control, and the degree of cell death was expressed as percentage of dead cells of the total cell number.
structure (smiles),measurement,setting,value
COC(=O)[C@H](CC(C)C)NC(=O)c1ccc(NC[C@@H](N)CS)cc1-c1cccc2ccccc12 [GGTI-298],Cdk2 activity,Cdk2,inhibits Cdk2 activity
Cc1nc[nH]c1CN1CCN(C(=O)N[C@@H](CC(C)C)C(=O)O)[C@@H](Cc2ccccc2)C1=O [GGTI-2418],IC50,FTase,53000 ± 11000 nM
same,Ki,"GGTase I; in vitro competition assay, read-out: Ki, competitive inhibition of GGTase I against H-Ras-CVLL protein",4.4 ± 1.6 nM
same,IC50,"GGTase I; in vitro, H-Ras-CVLL, [3H]GGPP, read-out: IC50, inhibition of GGTase I activity",9.5 ± 2 nM
same,tumor growth inhibition,[1]; 100 mg/kg daily i.p.,94%
same,average tumor size,[1]; 100 mg/kg daily i.p.,139±17 mm^3
same,tumor growth inhibition,[1]; 200 mg/kg every 3rd day i.p.,77%
same,average tumor size,[1]; 200 mg/kg every 3rd day i.p.,276±26 mm^3
same,S473 phosphorylation of Akt in tumors,"p27, Rap1, phospho-Akt; pre vs post treatment biopsies",dramatic decrease
same,geranylgeranylation of Rap1 in tumors,"p27, Rap1, phospho-Akt; pre vs post treatment biopsies",inhibited the geranylgeranylation of Rap1
same,change of p27 in post-treatment tumor samples (densitometry),"p27, Rap1, phospho-Akt; vehicle 0.63±0.19 fold, p=0.03",2.68±0.63 fold
same,"tumor regression, average (S.E.M.)","[2]; 100 mg/kg, 7 mice, 17 tumors",60±4%
same,"tumor decrease, representative example","[2]; 100 mg/kg/day, osmotic mini-pump",76%
"CC(=O)O[C@H]1C(=O)[C@@]2(C)[C@H]([C@H](OC(=O)c3ccccc3)[C@]3(O)C[C@H](OC(=O)[C@H](O)[C@@H](NC(=O)c4ccccc4)c4ccccc4)C(C)=C1C3(C)C)[C@]1(OC(C)=O)CO[C@@H]1C[C@@H]2O [taxol, reference compound]",tumor cell death in the presence of p27 siRNA,[3],could still die
